This is an account of results in patent US8691801B2, “Use of manzamine compounds in anti-cancer therapeutic regimens” (Florida Atlantic University Board of Trustees, priority 2006, dated 2014).

Read-outs that look alike come from different tables or passages of the source.

The test system of data set [1] is AsPC-1 cells. Kind of data set: TRAIL induced apoptosis (MTT readout). The conditions noted are these: 10 μM manzamine A, 48 hours, without TRAIL.
Method: (§1) TRAIL induced apoptosis. 12,000 AsPC-1 cells were plated on a 96-well tissue culture plate at a volume of 200 μl/well, allowing for twelve replicate wells per treatment. Cells were allowed to adhere for 24 hours. At the end of this incubation, 100 μl of medium were removed from each test well and 100 μl of medium containing treatment were added. Treatment consisted of media alone, media with methanol, 10 μM Manzamine A or 20 μg/m1 U0126. The cells were then incubated for 48 hours at 37° C. and 5% CO2. After this incubation, half of the wells of each treatment were incubated with 100 ng/ml Super Killer TRAIL (Alexis, San Diego, Calif.) for 18 hours at 37° C. and 5% CO2. At the end of this incubation, 75 μl of a 5 mg/ml MTT solution were added to each well. The cells were then incubated for 3 hours at 37° C. The plates were centrifuged for 10 minutes at 800 rpm. The supernatant was removed and 200 μl acidified isopropyl alcohol (1:500 solution of hydrochloric acid to isopropanol) were added to each well. The plates were shaken for 15 minutes. The absorbencies of these solutions were measured at 570 nm with a plate reader (NOVOstar, BMG Labtech Inc., Durham, N.C.). The resulting absorbencies were plotted using Microsoft Excel. […]
In data set [2] the test system is AsPC-1 cells. The data set is classed as cell-based.
From the text: In Vitro Cell Invasion Assay. The invasiveness of AsPC-1 cells alone, treated with our test compounds or treated with U0126 as a positive control will be evaluated in 24-well transwell chambers, as described by Fu et al. “Effects of raf kinase inhibitor protein expression on suppression of prostate cancer metastasis”. […] Briefly, the upper and lower culture compartments of each well are separated by polycarbonate membranes (8-μm pore size). To determine baseline migration, 2.5×10^4 cells in 0.5 mL of complete medium containing 5% FBS are placed into the upper compartment of uncoated wells (BD Discovery Labware, San Diego, Calif.), and 0.75 mL of complete medium containing 10% FBS are placed into the lower compartment. In parallel, to assess the ability of the same cells to penetrate a collagen matrix, the experiment is repeated using upper compartments coated with 100 μg/cm^2 of collagen matrix (BD Discovery Labware, San Diego, Calif.). The transwell chambers are incubated for 24 hours at 37 ° C. in 95% air and 5% CO2. Cell penetration through the membrane is detected by staining the cells on the porous membrane with a Diff-Quik stain kit' observing under the microscopic and capturing images with a digital camera.
The subject of data set [3] is AsPC-1 cells. Put plainly: Cell viability assay (MTT). The class given is cell-based. Conditions: pancreatic cancer cells. The protocol: Cell viability assays. A 3-[4,5-Dimethyl-2-thiazolyl]-2,5-diphenyl-2H-tetrazolium bromide (MTT) based assay was used to determine cell viability. […] Cells were allowed to adhere for 24 hours. […] Treatment consisted of 5 μM or 50 μM of Manzamine A, media alone, media with methanol, or 20 μg/ml U0126. […] After this incubation, 75 μl 5 mg/ml MTT were added to each well. […] The plates were shaken for 15 minutes. […] The resulting absorbencies were plotted using Microsoft Excel.

In data set [4] the test system is AsPC-1 cells. Put plainly: Morphological changes (cell dissociation) induced in AsPC-1 cells. The data set is classed as cell-based. How it is done: Cell Culture Conditions for the AsPC-1 pancreatic adenocarcinoma cell line. AsPC-1, a pancreatic adenocarcinoma cell line, was obtained from ATCC, grown, aliquotted and frozen stocks were maintained in liquid nitrogen. Aliquots of the stock cells were thawed and grown in RPMI-1640 supplemented with 10% Fetal Bovine Serum, 0.11 mg/ml Sodium Pyruvate, 4.5 g/L D-glucose, 18 mM HEPES Buffer, 100 U/ml penicillin G sodium, 100 μg/ml streptomycin sulfate, 0.25 μg/ml amphotericin B, 2 mM L-glutamine and 50 μg/ml gentamicin (Complete RPMI). Cells were maintained in a humidified incubator at 37° C. and 5% CO2.
An observation was made that inhibiting the constitutive activation of MEK abrogates cell dissociation (Tan, X. et al., 2004 “Involvement of the mitogen-activated protein kinase kinase 2 in the induction of cell dissociation in pancreatic cancer” Int J Oncol 24(1):65-73), a precursor step in metastasis.

The subject of data set [5] is AsPC-1 cells.
Method: as §1

`O[C@]12C=C(c3nccc4c3[nH]c3ccccc34)[C@@H]3CCN(CCCC/C=C\CC1)C[C@@]31CC3/C=C\CCCCN3[C@H]12` (some centres unmarked) [Manzamine A, manzamine A]: the “cytotoxicity of treatment alone” value in data set [1] was “induced some cytotoxicity”. Further, the “prevention of cell migration” value in data set [2] (AsPC-1 cells treated 48 hours, 5 and 10 μM Manzamine A, transwell, collagen matrix) is “prevented cell migration similar to that caused by the pMEK inhibitor U0126”. In addition, the “cytotoxicity at small doses” value in data set [3] is “little cytotoxicity”. The “abrogation of cell dissociation” value in data set [4] (AsPC-1 cells treated 48 hours with 1.25, 2.5, 5, 10 μM Manzamine A, microscopy) is on record as “caused abrogation of cell dissociation similar to that caused by pMEK inhibitors”. Moreover, the “abrogation of cell dissociation, dose dependence” value in data set [4] (AsPC-1 cells, 48 hours, 5 and 10 μM dose compared with 1.25 and 2.5 μM) is “stronger at the 5 and 10 μM dose”. In addition, the “dose needed for similar effects relative to U0126” value in data set [4] (effects on cell dissociation, migration and TRAIL resistance, manzamine A vs U0126) is “a fifth of the dose needed for U0126”.
As for `N#CC(=C(/N)Sc1ccccc1N)/C(C#N)=C(\N)Sc1ccccc1N` [U0126, reference compound], the “prevention of cell migration” value in data set [2] was “prevented cell migration”. Further, the “cytotoxicity of treatment alone” value in data set [5] is on record as “induced some cytotoxicity”.
